In PubChem BioAssay (NCI):
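Tested at 5 concentrations; 48 h exposure; 96-well plates; endpoints linearly interpolated, else capped at highest concentration. The concentration for 50% growth inhibition is given as GI50. TGI denotes the concentration required for complete inhibition of growth.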

Experiments:
Assay in all cases: growth of human tumour cells (NCI), 48 h
[1] = tested on: BT-549 breast
[2] = tested on: OVCAR-8 ovarian
[3] = tested on: SF-539 CNS
[4] = tested on: TK-10 renal
[5] = tested on: EKVX NSCLC
[6] = tested on: HS 578T breast
[7] = tested on: SF-268 CNS
[8] = tested on: PC-3 prostate
[9] = tested on: SN12C renal
[10] = tested on: OVCAR-3 ovarian

| SMILES | GI50 [1] [µM] | TGI [1] [µM] | GI50 [2] [µM] | TGI [2] [µM] | GI50 [3] [µM] | TGI [3] [µM] | GI50 [4] [µM] | TGI [4] [µM] | GI50 [5] [µM] | TGI [5] [µM] | GI50 [6] [µM] | TGI [6] [µM] | GI50 [7] [µM] | TGI [7] [µM] | GI50 [8] [µM] | TGI [8] [µM] | GI50 [9] [µM] | TGI [9] [µM] | GI50 [10] [µM] | TGI [10] [µM] |
| --- | --- | --- | --- | --- | --- | --- | --- | --- | --- | --- | --- | --- | --- | --- | --- | --- | --- | --- | --- | --- |
| CC[C@@]1(O)C(=O)NCc2c1cc1n(c2=O)Cc2cc3ccccc3nc2-1 | 9.04 | > 100 | 2.12 | > 44.8 | 1.71 | 11 | > 100 | > 100 | > 47.9 | > 100 | > 100 | > 100 | 0.706 | > 100 | 7.57 | > 100 | 2.03 | > 32.6 | 34.4 | > 100 |
| O=C(CC(=O)N1N=C(c2ccccc2)C(N=Nc2ccc(C(=O)O)cc2)C1=O)Nc1ccc(F)cc1 (stereo unspecified) |  |  |  | > 100 |  | 54.5 |  | > 100 |  | 77.1 |  |  |  | > 100 |  |  |  | > 100 |  | 56.2 |
| CN1/C(=C\C(I)C(I)C2=[N+](C)c3ccccc3C2(C)C)C(C)(C)c2ccccc21 (stereo unspecified) | 0.119 | 3.17 | 0.303 | 13.9 | 0.783 | 23.6 | 0.521 | 27.9 | 0.369 | 36.7 | 0.992 | 39.2 | 0.479 | 19.1 | 0.177 | 12.3 | 0.277 | 9.86 | 0.304 | 13.8 |
| O=C(c1ccccc1Nc1ccnc(C(F)(F)F)c1)N1CCN(c2cccc(Cl)c2)CC1 | 15.9 | 37.3 | 24.4 | > 87.8 | 17.8 | 41.1 | 30.8 | > 100 | 15.4 | > 87.5 | 17.3 | 89.2 | 29.3 | > 100 | 9.45 | 53 | 16.4 | 45 | 19 | > 80.9 |
| c1ccc2c(CNCCCCCCNCc3cccc4ccccc34)cccc2c1 |  |  |  | 29 |  | 3.48 |  | 25.2 |  | 26.4 |  |  |  | 25.7 |  |  |  | 25.3 |  | 30.6 |
| CC#C[C@@]1(O)CCCC[C@@H]1O |  |  |  | > 100 |  | > 100 |  | > 100 |  | > 100 |  |  |  | > 100 |  |  |  | > 100 |  | > 100 |
| Nc1ccc(-c2nc3ccc4[nH]ncc4c3c3c2CCCC3)cc1F | 1.28 | 7 | 1.57 | 21.6 | 1.38 | 5.85 | 0.828 | 22.4 | 0.215 | 3.92 | 1.05 | 3.91 | 1.76 | 19.2 |  |  | 1.96 | 13.2 | 1.89 | 18.5 |
| Cc1cc(NS(=O)(=O)c2ccc(Nc3c4ccccc4nc4c(C(=O)Nc5ccc(S(=O)(=O)N=C(N)N)cc5)cccc34)cc2)no1 |  |  |  | > 100 |  | > 100 |  | > 100 |  | > 100 |  |  |  | > 100 |  |  |  | > 100 |  | > 100 |
| O=c1[nH]cc(CS(=O)(=O)Cc2c[nH]c(=O)[nH]c2=O)c(=O)[nH]1 |  | > 100 |  | > 100 |  | > 100 |  | > 100 |  | > 100 |  | > 100 |  | > 100 |  | > 100 |  | > 100 |  |  |
| COC(=O)/C=C/C(=O)C1C(C(=O)OC)C2(C(=O)OC)CCC1(C(=O)OC)N2 (stereo unspecified) |  |  |  | > 100 |  | > 100 |  | > 100 |  | > 100 |  |  |  | > 100 |  |  |  |  |  | > 100 |
| Cc1cc(C)cc(-n2c3nc(=O)n(C)c(=O)c-3nc3ccccc32)c1 |  |  |  | > 100 |  | 49.7 |  | > 100 |  | 44.7 |  |  |  | > 100 |  |  |  | 76.4 |  | 12.6 |
| COC(=O)C(=O)C1(CCC(C)=O)c2ccccc2-c2ccccc21 |  |  |  | > 100 |  |  |  | > 100 |  | > 100 |  |  |  | > 100 |  |  |  | > 100 |  | > 100 |
| COC(=O)C[CH](C(=O)OC)[Ge]([CH3])([CH3])[S]c1ccccc1 (stereo unspecified) |  |  | 19.3 | 76.9 | 22.1 | 39.7 | 38.9 | > 100 | 16.1 | 75.2 |  |  | 18.7 | 64.1 |  |  | 16 | 32 | 15.1 | 38.8 |
| Cc1cccc(NC(=O)C(=O)C2C(=O)NC(=O)NC2=O)c1C |  |  |  | > 100 |  | > 100 |  | > 100 |  | > 100 |  |  |  | > 100 |  |  |  | > 100 |  | > 100 |
| CCOC1OCCCC1Br (stereo unspecified) |  |  |  | > 100 |  | > 100 |  | > 100 |  | > 100 |  | > 100 |  | > 100 |  | > 100 |  | > 100 |  | > 100 |
| CCN(CC)CCN1C(=O)c2c(c(C)c3c(oc4cc(O)ccc43)c2C)C1=O | 1.67 | 3.19 | 2.11 | 5.72 | 1.68 | 3.05 | 1.93 | 3.62 | 1.69 | 3.3 |  |  | 1.74 | 3.78 | 1.5 | 3.22 | 1.63 | 3.11 | 1.78 | 3.34 |
| CC(C)[C@@H]1C=C(c2ccccc2)c2ccccc2C1C(C#N)(C#N)C(C)C (stereo partly specified) |  |  |  | > 100 |  | > 100 |  | > 100 |  | > 100 |  |  |  | > 100 |  |  |  | > 100 |  | > 100 |
| Cn1cnc([N+](=O)[O-])c1Sc1ccccn1 |  |  |  | > 100 |  | > 100 |  | > 100 |  | > 100 |  |  |  | > 100 |  |  |  | > 100 |  | > 100 |
| C=CN1C(=O)OC(c2ccccc2)C1c1ccccc1 (stereo unspecified) |  |  | > 100 | > 100 |  | > 100 | > 100 | > 100 | > 100 | > 100 |  |  | > 100 | > 100 |  |  | > 100 | > 100 | > 100 | > 100 |
| N#Cc1cccc(NC(=O)c2ccc(C(=O)O)c(C(=O)c3ccc(C(=O)O)c(C(=O)Nc4cccc(C#N)c4)c3)c2)c1 |  |  |  | > 100 |  | > 100 |  | > 100 |  | > 100 |  |  |  | > 100 |  |  |  | > 100 |  | > 100 |
